Series [1] has as its target T1, human TREK-1 (Homo sapiens, UniProt O95069).
T1 construct: expressed in transfected cells
T1 sequence (O95069 1-426): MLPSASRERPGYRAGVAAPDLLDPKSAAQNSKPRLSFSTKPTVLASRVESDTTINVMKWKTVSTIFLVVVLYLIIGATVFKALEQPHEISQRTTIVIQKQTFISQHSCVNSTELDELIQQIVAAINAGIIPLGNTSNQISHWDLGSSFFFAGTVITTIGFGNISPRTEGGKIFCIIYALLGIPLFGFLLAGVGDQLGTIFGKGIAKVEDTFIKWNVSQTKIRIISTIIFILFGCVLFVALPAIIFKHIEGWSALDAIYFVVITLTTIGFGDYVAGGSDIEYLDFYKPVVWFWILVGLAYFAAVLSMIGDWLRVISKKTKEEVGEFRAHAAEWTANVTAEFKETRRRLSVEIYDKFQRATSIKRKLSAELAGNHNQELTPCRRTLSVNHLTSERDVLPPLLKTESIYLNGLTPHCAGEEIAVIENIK
The experiment in a line: TREK-1 Thallium (Tl+) flux assay, Method 1. Type of series: cell-based. As to conditions: TREK-1 Thallium (Tl+) flux assay; values without footnote *12 are Method 1. The essentials:
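Readout: Thallos fluorescence ratio, taken 25 s post-thallium relative to the pre-thallium baseline average, then converted to % inhibition. Cells were CHO-K1 stably expressing human TREK-1, dye-loaded and exposed to test compound (vehicle 0.3% DMSO) for 10 min prior to thallium stimulation.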

For series [2], the system named is MK-801-induced deficits in the Novel Object Recognition Task. The experiment in a line: MK-801-induced novel object recognition test. Format: in vivo, Sprague-Dawley rats. The settings on record: rats; 0.1 mg/kg, 0.3 mg/kg and 1 mg/kg; MK-801 0.2 mg/kg. The procedure:
The term “MK-801-induced novel object recognition test” herein refers to the experiment to evaluate in vivo efficacy in the schizophrenic cognitive impairment animal model. The detail method is described below. MK-801 is also known as dizocilpine.
MK-801-Induced Novel Object Recognition Test:
Testing was performed using 6-week-old male Sprague Dawley rats. On the testing day, rats were habituated at the empty box for 10 minutes individually. The disclosed compound was administered orally 1 h prior, followed by administration of MK-801 (0.2 mg/kg, s.c.) 30 min prior to the acquisition trial for 10 min. The retention trial for 10 min was performed with the intertrial interval for 80 min. The rat was allowed to explore the same objects in the acquisition trial. In the retention trial, one of the objects used in the acquisition trial was replaced with a novel one. The exploration time of licking, sniffing or touching was measured in the retention trial. Efficacy of each compound at the dose of 0.3, 1, 3 or 10 mg/kg p.o. (n=12-15) was determined by the recognition index (exploration time to the novel object/total exploration time). The scores of MK-801/vehicle and MK-801/compound-treated groups were statistically analyzed by Dunnett's test.
MK-801 induced disruptions of Novel Object Recognition
Drugs: Test compounds were formulated in 10% Tween 80/90% sterile water vehicle. […]

The nature of series [3]: Mouse brain homogenate binding (BHB). Format: in vitro ADME. The protocol:
(§1) These assays were performed according to known methods as generally described in the following references: Conde-Ceide et al. ACS Med. Chem. Lett. 2015, 6, 716-720; Morris et al. J. Med. Chem. 2014, 57, 10192-10197; and Bubser et al. ACS Chem. Neurosci. 2014, 5, 920-942. Abbreviations which have been used in the descriptions of the following tables are; PPB is plasma protein binding; BHB is brain homogenate binding; and CLint is intrinsic clearance in hepatic microsomes.

A short description of series [4]: Mouse hepatic microsomal intrinsic clearance. Type of series: in vitro ADME. The settings on record: mouse hepatic microsomes. The protocol: as §1
The target in series [5] is CYP3A4 (Homo sapiens, UniProt P08684). The experiment in a line: P450 inhibition 3A4. Format: in vitro ADME. The procedure: as §1

Entries after “also recorded” stand apart in the source; their conditions may differ.

Chain of CYP3A4 (P08684 whole entry): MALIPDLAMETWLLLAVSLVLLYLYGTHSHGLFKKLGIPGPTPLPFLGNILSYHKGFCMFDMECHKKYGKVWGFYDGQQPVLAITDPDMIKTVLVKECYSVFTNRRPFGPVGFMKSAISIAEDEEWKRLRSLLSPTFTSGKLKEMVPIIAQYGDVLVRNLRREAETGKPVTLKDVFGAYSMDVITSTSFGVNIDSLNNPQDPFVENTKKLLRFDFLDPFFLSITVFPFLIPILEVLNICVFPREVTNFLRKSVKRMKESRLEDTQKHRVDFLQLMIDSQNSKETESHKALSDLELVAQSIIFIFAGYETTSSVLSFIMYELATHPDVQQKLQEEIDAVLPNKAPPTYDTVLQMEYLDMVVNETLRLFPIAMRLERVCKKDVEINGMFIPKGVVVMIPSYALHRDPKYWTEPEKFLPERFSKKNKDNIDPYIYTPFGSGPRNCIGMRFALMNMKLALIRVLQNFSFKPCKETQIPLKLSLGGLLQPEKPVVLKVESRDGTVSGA

As a reminder, the IC50 is the concentration that gives 50% inhibition. Low values mean inhibition by little substance, high ones a need for much substance. Broadly, the CLint scaled is the capacity of the preparation to metabolise the compound, expressed as a volume cleared per time. Take `CC(=O)N[C@H]1CC[C@@H](n2ncc(Cl)c2C(=O)Nc2ncc(C#Cc3ccccc3)cc2C)CC1` [Compound 12, 1-(cis-4-acetamidocyclohexyl)-4-chloro-N-(3-methyl-5-(phenylethynyl)pyridin-2-yl)-1H-pyrazole-5-carboxamide]: the IC50 in series [1] is 130 nM; in series [5], above 30000 nM. Besides, the “reversal of MK-801-induced deficits in the Novel Object Recognition Task” value in series [2] is on record as “dose-dependently reversed; also recorded: caused reversal”. The “Mouse BHB (% bound)” value in series [3] is given as 99.7 % bound. Further, the CLint scaled in series [4] was 103 mL/min/kg.

Source of the values: patent US20240182445A1 (ONO PHARMACEUTICAL CO., LTD., priority 2019, published 2024).
